Measurements published in article PMC3214022, “Plasmodium falciparum Parasites Are Killed by a Transition State Analogue of Purine Nucleoside Phosphorylase in a Primate Animal Model” (PLoS ONE, 2011).
Several values for one entry are separate records, joined by “and”; a condition that tells them apart may be missing. Identical values can stand only once.

Legend:
[1] = tested on: P. falciparum strain 3D7; assay: 72 h in vitro growth inhibition test, PicoGreen DNA quantitation; format: cell-based; conditions: Plasmodium falciparum, 3D7, 72 h
Method: (§1) Briefly, synchronous culture in the schizont stage was cultured for 24 h in media containing 10 µM of hypoxanthine. Ring stage parasite cultures (200 µl per well, with 1% hematocrit and 1% parasitaemia) were then grown for 72 h in the presence of increasing concentrations of the drug. After 72 h in culture, parasite viability was determined by DNA quantitation using PicoGreen (Invitrogen) as described by Quashie and colleagues. The half-maximum inhibitory concentration (IC50) calculation was performed with Origin software (OriginLab) using a nonlinear regression curve fitting. Half-maximum inhibitory concentration (IC50) is the concentration of inhibitor needed to kill 50% of parasites.

[2] = tested on: P. falciparum strain FVO; assay: as above; format: cell-based; conditions: Plasmodium falciparum, chloroquine/quinine resistant strain FVO, 1% hematocrit, 10 µM hypoxanthine
Method: as §1

[3] = tested on: P. falciparum strain Dd2; assay: as above; format: cell-based; conditions: Plasmodium falciparum, DD2, 72 h
Method: as §1

[4] = tested on: P. falciparum (FVO strain); assay: Efficacy study: parasitaemia in infected Aotus monkeys (thick blood smears); format: in vivo, Aotus lemurinus lemurinus; conditions: for Parasitaemia: oral 50 mg kg^−1 twice a day for 7 days, monkeys ITM 1-3 = c3-c5
Method: (§2) Laboratory bred Aotus lemurinus lemurinus monkeys (0.75–0.89 kg) were maintained as described. […] Blood samples were collected before the treatment started (t = 0), 0.05 h, 0.5 h, 1 h, 2 h, 6 h, 24 h, 48 h, and 6, 12 and 18 days after the first dose from each monkey and processed as described below. Pharmacokinetic parameters were calculated using PKSolver. For efficacy studies, Aotus monkeys were inoculated intravenously with 5×10^6 parasites of the FVO strain of P. falciparum in an approved treatment protocol. […] Parasitaemia was determined by Giemsa-stained thick blood smears prepared daily from the marginal ear vein [41]. Blood samples were collected from each monkey and transferred to tubes containing lithium heparin, centrifuged and both plasma and blood cells were frozen at −80 °C until analysis. Animals received a physical examination and blood chemistry profiles were monitored after treatment as described previously. Any monkey not responding appropriately to treatment was cured of its infection with mefloquine (40 mg kg^−1). […] The day of clearance is defined as the first of three consecutive days in which the thick blood films are parasite negative. The day of recrudescence is the first of three consecutive days of positive thick blood films after a period of clearance. Suppression is defined as a transient decrease in the parasite count post-treatment without clearance.

[5] = Weights, CBC and blood chemistry, Table S1 sheet PK (pharmacokinetic study); format: in vivo, Aotus lemurinus lemurinus
Method: as §2

[6] = tested on: P. falciparum-infected erythrocytes; assay: Metabolic labeling with [3H]inosine or [3H]hypoxanthine and HPLC analysis; format: cell-based, Plasmodium falciparum; conditions: 10 µM BCX4945, 1 h labeling
Description: Samples were extracted with perchloric acid (PCA), neutralized and analyzed by HPLC as described.

[7] = tested on: P. falciparum infected-erythrocytes; assay: Polyamine and purine levels in cultured cells after BCX4945 treatment (HPLC, UPLC/MS/MS); format: cell-based, Plasmodium falciparum; conditions: 5 µM BCX4945, 24 h
Method: Polyamines from 0.5 M PCA extracts were analyzed as the dansyl-derivatives by HPLC/fluorescence on a Waters Millennium system. Protein concentration was determined with a bicinchoninic acid (BCA) protein assay kit according to the manufacturer's instructions (Pierce) using BSA as a standard. Data from biological samples were normalized to the protein content.
Samples from blood cells, plasma and media were extracted and analyzed in duplicate. […] Samples were incubated for 20 min at 4 °C and neutralized with 5 M KOH at 10∶1 (v/v, HClO4/KOH) for 20 min at 4 °C. Plates were centrifuged (10 min at 4,000 rpm, 4°C) and supernatants were filtered through a MultiScreen® Filter Plate with Ultracel®-10 Membrane (Millipore). Metabolite and inhibitor levels were quantified by UPLC/MS/MS using a Xevo TQ mass spectrometer (Waters). […] Quantitative determination was performed in ESI positive-ion mode using multiple-reaction monitoring (MRM) mode. The ESI capillary voltage was 0.3 kV, source temperature was set at 150 °C and desolvation temperature at 450 °C. Data acquisition and analysis were carried out by MassLynx V4.1 and QuanLynx software (Waters). The concentration of the metabolites was calculated by interpolation of the observed analyte/internal standard peak-area ratio with the corresponding calibration curve.

[8] = oral 50 mg kg^−1 twice a day for seven days

Nc1nc2c(CN3CC(O)C(CO)C3)c[nH]c2c(=O)[nH]1 (stereo not shown) [BCX4945, 4′-deaza-1′-aza-2′-deoxy-1′-(9-methylene)-Immucillin-G]
IC50 [1]: 164 ± 20 nM | IC50 [2]: 202 ± 27 nM | IC50 [3]: 130 ± 22 nM | Parasitaemia ([4]; day 1 post-treatment): 0 Parasites per µl×10^3 | Parasitaemia ([4]; day of treatment 6): 0 Parasites per µl×10^3 | Parasitaemia ([4]; day −1 (before treatment)): 0.7 Parasites per µl×10^3 and 0.5 Parasites per µl×10^3 | clearance of P. falciparum infection [4, 8]: cleared P. falciparum infections between the fourth and the seventh day of treatment | parasitaemia cleared, of the original infection [4, 8]: > 99.99% | time monkeys remained parasite-negative post-treatment [4, 8]: up to nine days | response to treatment (category) ([4]; oral BCX4945, Aotus model): clearance and recrudescence | Creatine ([5]; IV 10 mg/kg once a day/3 days, monkeys 21014 (c1-5), 21007 (c6-10), 22014 (c11-15), 22004 (c16-20), days -2, 6, 12, 18 (22004: 19), 79, 10 mg/kg, day 12): 0.55 mg/dL and 0.532 mg/dL | Creatine ([5]; IV 10 mg/kg once a day/3 days, monkeys 21014 (c1-5), 21007 (c6-10), 22014 (c11-15), 22004 (c16-20), days -2, 6, 12, 18 (22004: 19), 79, 10 mg/kg, day -2): <0.5 mg/dL and 0.5 mg/dL | Blood Urea Nitrogen ([5]; oral, one dose 50 mg/kg, monkey 23015, days -2, 6, 12, 19, 79 = c1-c5, 50 mg/kg): <10.0 mg/dL | Creatine ([5]; oral, three doses 50 mg/kg once a day/3 days, monkey 23029, days -2, 6, 12, 19, 79 = c11-c15): <0.5 mg/dL | [3H]hypoxanthine incorporation into purine derivatives [6]: continues at reduced levels | [3H]inosine incorporation into the purine pool ([6]; schizont and trophozoite stages): complete inhibition | Adenosine, cell pellet [7]: 10±4 nmoles/mg protein | Adenosine, supernatant [7]: 0.4±0.2 (0.08) µM | BCX4945 level, cell pellet [7]: 20±6 (0.004) nmoles/mg protein | BCX4945 level, supernatant [7]: 5±0.6 (0.0002) µM | Hypoxanthine, cell pellet [7]: 0 (0.007) nmoles/mg protein | Hypoxanthine, supernatant [7]: 0 (0.004) µM | Inosine, cell pellet [7]: 19±5 nmoles/mg protein | Inosine, supernatant [7]: 60 µM and 61±5 (0.0001) µM | MTA, cell pellet [7]: 0.6±0.1 nmoles/mg protein | MTA, supernatant [7]: 0 µM | MTI, cell pellet [7]: 0.6±0.1 nmoles/mg protein | MTI, supernatant [7]: 0.3±0.1 (0.03) µM | Putrescine, cell pellet [7]: 0.2±0.1 (0.01) nmoles/mg protein | Spermidine, cell pellet [7]: 1.1±0.3 (0.02) nmoles/mg protein | Spermine, cell pellet [7]: 0.07±0.03 (0.01) nmoles/mg protein
